From PMC5804415, “Comparison of ^68Ga-DOTA-Siglec-9 and ^18F-Fluorodeoxyribose-Siglec-9: Inflammation Imaging and Radiation Dosimetry” (Contrast Media & Molecular Imaging, 2017)
Positions of bridges follow the written chain, without caps; N, C: chain ends. Residues, ends and D or L forms follow the SMILES beside them. *: point of attachment. DOTA = O=C(O)CN1CCN(CC(=O)O)CCN(CC(=O)*)CCN(CC(=O)O)CC1; AEEA = NCCOCCOCC(=O)O

Tests used:
[1] = test system: rats with skin/muscle inflammation (turpentine oil); format: in vivo, rat; conditions: rat, in vivo, iv
Protocol: Rats were divided into two groups with Group 1 being intravenously (i.v.) given ^68Ga-DOTA-Siglec-9 (16 ± 2.9 MBq, n = 8) and Group 2 ^18F-FDR-Siglec-9 (18 ± 5.1 MBq, n = 8). A 60 min dynamic PET acquisition was performed on a High Resolution Research Tomograph (HRRT; Siemens Medical Solutions, Knoxville, TN, USA). The PET data were reconstructed into 5 × 60 s and 11 × 300 s frames using an ordered-subsets expectation maximization 3D algorithm (OSEM3D). Quantitative PET image analysis was performed by defining regions of interest (ROIs) within the inflamed area (on the left foreleg), control area (on the right foreleg), kidneys, lungs, heart, liver, and urinary bladder using […] 2.8 software (Turku PET Centre). Results were expressed as standardized uptake values (SUV) and time-activity curves. SUV was calculated as a ratio of tissue radioactivity concentration (Bq/mL) and given radioactivity dose (Bq) divided by animal's body weight.

[2] = SD
Protocol: Absorbed doses of ^68Ga-DOTA-Siglec-9 and ^18F-FDR-Siglec-9 were calculated with the OLINDA/EXM version 1.0 software (organ level internal dose assessment and exponential modeling; Vanderbilt University, Nashville, TN, USA), which applies the MIRD schema (developed by the Medical Internal Radiation Dose committee of the Society of Nuclear Medicine) for radiation dose calculations in internal exposure. The software includes radionuclide information and selection of human body phantoms. The residence times derived from the rat data were integrated as the area under the time-activity curve. The residence times were converted into corresponding human values by multiplication with a factor to scale the organ and body weights: (WBody,rat/WOrgan,rat)×(WOrgan,human/WBody,human), where WBody,rat and WBody,human are the body weights of rat and human (a 70-kg male), respectively; and WOrgan,rat and WOrgan,human are the organ weights of rat and human (organ weights for a 70 kg male), respectively [14].

[3] = test system: LDLR^−/−ApoB^100/100 atherosclerotic mice; set-up: method as in PMID 27731409; conditions: mouse, in vivo; cited from earlier work
in vivo = conditions: Sprague-Dawley, rat, iv, total radioactivity, Ex vivo biodistribution, SD
Text: Twenty-four hours before the PET studies, Sprague-Dawley rats (weight, 350 ± 22 g; n = 16) were subcutaneously injected with turpentine oil (Sigma-Aldrich) to induce focal acute, sterile inflammation [12]. Before the injection, rats were shaved on the both forelegs. Inflamed area on the left foreleg contained both skin and muscle. The intact, contralateral side (right foreleg) was used as a control.
After PET imaging, rats were sacrificed and various tissues were excised and weighed, and their radioactivity levels were measured with a gamma counter (1480 Wizard 3′′, PerkinElmer, Turku, Finland). The ex vivo biodistribution results were expressed as a percentage of the injected radioactivity dose per gram of tissue (% ID/g) and target-to-background ratio.

time of peak uptake in the inflamed area after the i.v. bolus injection [1]: about 10 min | Human dose equivalent estimate, Adrenals [2]: 0.014 ± 0.0012 mSv/MBq | Human dose equivalent estimate, Brain [2]: 0.012 ± 0.00077 mSv/MBq | Human dose equivalent estimate, Breasts [2]: 0.011 ± 0.00064 mSv/MBq | Human dose equivalent estimate, Gallbladder wall [2]: 0.014 ± 0.00065 mSv/MBq | Human dose equivalent estimate, Heart wall [2]: 0.0083 ± 0.0010 mSv/MBq | Human dose equivalent estimate, Kidneys [2]: 0.15 ± 0.12 mSv/MBq | Human dose equivalent estimate, Liver [2]: 0.012 ± 0.0024 mSv/MBq | Human dose equivalent estimate, Lower large intestine wall [2]: 0.015 ± 0.00077 mSv/MBq | Human dose equivalent estimate, Lungs [2]: 0.0044 ± 0.00054 mSv/MBq | Human dose equivalent estimate, Muscle [2]: 0.0050 ± 0.00018 mSv/MBq | Human dose equivalent estimate, Osteogenic cells [2]: 0.017 ± 0.00094 mSv/MBq | Human dose equivalent estimate, Ovaries [2]: 0.015 ± 0.00064 mSv/MBq | Human dose equivalent estimate, Pancreas [2]: 0.014 ± 0.00085 mSv/MBq | Human dose equivalent estimate, Red marrow [2]: 0.010 ± 0.00037 mSv/MBq | Human dose equivalent estimate, Skin [2]: 0.010 ± 0.00054 mSv/MBq | Human dose equivalent estimate, Small intestine [2]: 0.014 ± 0.00047 mSv/MBq | Human dose equivalent estimate, Spleen [2]: 0.014 ± 0.0011 mSv/MBq | Human dose equivalent estimate, Stomach wall [2]: 0.013 ± 0.00065 mSv/MBq | Human dose equivalent estimate, Testes [2]: 0.013 ± 0.00062 mSv/MBq | Human dose equivalent estimate, Thymus [2]: 0.011 ± 0.00068 mSv/MBq | Human dose equivalent estimate, Thyroid [2]: 0.011 ± 0.00072 mSv/MBq | Human dose equivalent estimate, Total body [2]: 0.013 ± 0.00041 mSv/MBq | Human dose equivalent estimate, Upper large intestine wall [2]: 0.014 ± 0.00046 mSv/MBq | Human dose equivalent estimate, Urinary bladder wall [2]: 0.20 ± 0.087 mSv/MBq | Human dose equivalent estimate, Uterus [2]: 0.018 ± 0.0017 mSv/MBq | Human effective dose estimate [2]: 0.024 ± 0.0041 mSv/MBq | Normalized number of disintegrations, Heart wall [2]: 0.0029 ± 0.00072 h | Normalized number of disintegrations, Kidneys [2]: 0.093 ± 0.081 h | Normalized number of disintegrations, Liver [2]: 0.033 ± 0.0097 h | Normalized number of disintegrations, Lungs [2]: 0.0026 ± 0.0011 h | Normalized number of disintegrations, Muscle [2]: 0.054 ± 0.0088 h | Normalized number of disintegrations, Total body [2]: 1.3 ± 0.085 h | Normalized number of disintegrations, Urinary bladder wall [2]: 0.17 ± 0.076 h | tissue uptake at 1 h (in vivo; Adipose tissue, BAT): 0.024 ± 0.026 %ID/g | tissue uptake at 1 h (in vivo; Adipose tissue, WAT): 0.027 ± 0.014 %ID/g | tissue uptake at 1 h (in vivo; Blood): 0.099 ± 0.04 %ID/g | tissue uptake at 1 h (in vivo; Bone (femoral)): 0.02 ± 0.0089 %ID/g | tissue uptake at 1 h (in vivo; Bone marrow): 0.039 ± 0.012 %ID/g | tissue uptake at 1 h (in vivo; Brain): 0.0062 ± 0.0049 %ID/g | tissue uptake at 1 h (in vivo; Control area): 0.051 ± 0.0063 %ID/g | tissue uptake at 1 h (in vivo; Heart): 0.03 ± 0.011 %ID/g | tissue uptake at 1 h (in vivo; Inflamed area): 0.12 ± 0.032 %ID/g | tissue uptake at 1 h (in vivo; Kidneys): 2.8 ± 1.8 %ID/g | tissue uptake at 1 h (in vivo; Liver): 0.32 ± 0.16 %ID/g | tissue uptake at 1 h (in vivo; Lungs): 0.079 ± 0.035 %ID/g | tissue uptake at 1 h (in vivo; Muscle): 0.019 ± 0.0091 %ID/g | tissue uptake at 1 h (in vivo; Pancreas): 0.024 ± 0.0024 %ID/g | tissue uptake at 1 h (in vivo; Plasma): 0.13 ± 0.015 %ID/g | tissue uptake at 1 h (in vivo; Small intestine): 0.06 ± 0.016 %ID/g | tissue uptake at 1 h (in vivo; Spleen): 0.19 ± 0.11 %ID/g | tissue uptake at 1 h (in vivo; male, Testis): 0.035 ± 0.031 %ID/g
SMILES: CC(C)C[C@@H]1NC(=O)CNC(=O)[C@H](CCCNC(=N)N)NC(=O)[C@H](Cc2c[nH]c3ccccc23)NC(=O)[C@H](CO)NC(=O)[C@H](CC(C)C)NC(=O)[C@H](CO)NC(=O)[C@H](CC(C)C)NC(=O)[C@H](CCCNC(=N)N)NC(=O)[C@H](C)NC(=O)[C@@H](NC(=O)COCCOCCNC(=O)CN2CCN(CC(=O)O)CCN(CC(=O)O)CCN(CC(=O)O)CC2)CSSC[C@@H](C(=O)N2CCC[C@H]2C(=O)N[C@@H](CO)C(=O)N[C@@H](CCCCN)C(=O)O)NC(=O)[C@H](CC(C)C)NC(=O)[C@H]([C@@H](C)O)NC1=O [^68Ga-DOTA-Siglec-9, metal not drawn] ({DOTA-AEEA}-CARLSLSWRGLTLCPSK-OH; disulfide 1-14)
aortic uptake, previously reported [3]: 0.83 ± 0.33 % ID/g
